No end group written: not given here.
Experiments:
IL-10 [1] = assay: IL-10 production from LPS-stimulated PBMC (cytometric bead array); format: cell-based; conditions: human PBMCs stimulated with LPS 0.6 or 20 ng/ml; hBD2 100, 10 or 1 pg/ml; Dexamethason 3.5 ng/ml; Infliximab 1 μg/ml; 24 hours
Procedure: (§1) Peripheral blood was drawn from healthy volunteers (with approval from the relevant ethical committee in Denmark). Heparinized blood was diluted 1/1 v/v with RPMI and were subjected to Ficoll density centrifugation within 2 h of drawing. Plasma was collected from the top from individual donors and was kept on ice until it was used at 2% in the culture medium (autologous culture medium). Isolated PBMC were resuspended in autologous culture medium and seeded in 96-well culture plates with 255.000 cells per well in a total of 200 μl. PBMC from the same donor were stimulated with 100, 10 or 1 pg/ml of hBD2 (either full-length or cleaved) either alone or together with LPS at 0.6 ng/ml or 20 ng/ml (E. coli, O111:B4, Sigma L4391), as a control on down-regulation of inflammatory cytokines 3.5 ng/ml Dexamethason (Sigma D8893) and 1 μg/ml Infliximab (Centocur B. V., NCI039843LA) was included. The concentrations of these compounds were based on initial titration studies, where the highest possible concentration without effect of viability was used. The supernatants were collected after incubation at 37° C. for 24 hours, and stored at −80° C.° until cytokine measurement. Viability was measured by Alamar Blue (Biosource, DALL 1100) to be sure that anti-inflammatory effects were not due to toxicity.
TNF and IL-10 production in supernatants was measured by flow cytometry with a human inflammation cytometric bead array (CBA) according to manufacturer's instructions (BDBioSciences) on a FACSarray flow cytometer (BDBiosciences).
All experiments were performed at least twice on several donors, with representative results shown. The data presented are expressed as mean plus/minus standard deviation (SD). Statistical significance was determined by 2-way ANOVA with the variables being treatment (hBD2, dexamethazone, etc.) and stimulation (LPS) followed by Bonferroni post-test as reported in the table legends. Differences were considered significant for p<0.05.

TNF [2] = conditions: human PBMCs stimulated with LPS or another TLR ligand; cited from earlier work
rheumatoid arthritis = conditions: WO 2010/007168; cited from earlier work
IL-10 [3] = conditions: human PBMCs stimulated with LPS or another TLR ligand; cited from earlier work
TNF [4] = assay: TNF production from LPS-stimulated PBMC (cytometric bead array); format: cell-based, human; conditions: for TNF production (FIG. 2): human PBMCs stimulated with LPS 0.6 or 20 ng/ml, hBD2 100, 10 or 1 pg/ml, 24 hours
Procedure: as §1, with “toxicity. TNF and IL-10 production in supernatants was measured by flow cytometry with a human inflammation cytometric bead array (CBA) according to manufacturer's instructions (BDBioSciences) on a FACSarray flow cytometer (BDBiosciences). All experiments were performed at least twice on several donors, with representative results shown. The data presented are expressed as mean plus/minus standard deviation (SD). Statistical significance was determined by 2-way ANOVA with the variables being treatment (hBD2, dexamethazone, etc.) and stimulation (LPS) followed by Bonferroni post-test as reported in the table legends. Differences were considered significant for p<0.05.” for “toxicity.”

Substance | IL-10 production (FIG. 1) (IL-10 [1]) | effect on TNF, previously seen (WO 2010/007166) (TNF [2]) | therapeutic potential in animal model of rheumatoid arthritis (rheumatoid arthritis) | effect on IL-10, previously seen (WO 2010/007166) (IL-10 [3]) | TNF production (FIG. 2) (TNF [4]) | anti-inflammatory activity in vitro compared with full-length hBD2 (FIGS. 1 and 2) (TNF [4]; human PBMC stimulated with LPS, TNF and IL-10 read-outs) | potency relative to full length hBD2 (FIG. 2) (TNF [4]; human PBMC, TNF production, at some concentrations)
Infliximab: anti-TNF antibody, control for anti-inflammatory effects | down-regulate IL-10 | – | – | – | – | – | –
full-length hBD2: full length human beta defensin 2, produced recombinantly in E. coli (GIGDPVTCLKSGAICHPVFCPRRYKQIGTCGLPGTKCCKKP; ends and bridges not checked; cysteine pairing not given here; listed as Homo sapiens) | significantly induced IL-10 production | downregulation of TNF | has shown therapeutic potential | upregulation of IL-10 | significantly reduced TNF production | – | –
PVTCLKSGAICHPVFCPRRYKQIGTCGLPGTKCCKKP [cleaved hBD2] | significantly induced IL-10 production | – | – | – | significantly reduced TNF production | same anti-inflammatory activity in vitro as full-length hBD2 | more potent than full length human beta-defensin 2

Source: patent US20130052213A1, “NOVEL IMMUNOMODULATORY PEPTIDE” (Novozymes A/S, priority 2011, published 2013)
